# Laboratory results: the supplement of paper PMC6045584
# ± gives the standard deviation of the averaged measurements.
# How the values were obtained:
# [1] = compound: CC/C(=C(\c1ccc(O)cc1)c1ccc(OCCN(C)C)cc1)c1ccccc1 [AFIMOXIFENE]; assay: surviving fraction relative to DMSO-only wells; higher = less growth inhibition; settings: exposure time: 5 days
# Outline: (§1)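 A line counted only if its three screens reached replicate Pearson r >0.7 and median Z' >0.3. Tumour cells in log phase were seeded at 250–500 per well in 384-well plates and, after 24 hours, kept in continuous contact with inhibitors at 0.5, 1, 5, 10, 50, 100, 500 and 1000 nM for five days. Surviving fraction was taken from CellTiter-Glo luminescence relative to the median of DMSO-only wells.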
# [2] = compound: COc1cc2nccc(Oc3ccc(NC(=O)C4(C(=O)Nc5ccc(F)cc5)CC4)cc3)c2cc1OC [CABOZANTINIB]; assay: as above; settings: exposure time: 5 days
# Outline: as §1
Test System,surviving fraction ([1]; 0.5 nM),surviving fraction ([1]; 1 nM),surviving fraction ([1]; 5 nM),surviving fraction ([1]; 10 nM),surviving fraction ([1]; 50 nM),surviving fraction ([1]; 100 nM),surviving fraction ([1]; 500 nM),surviving fraction ([1]; 1000 nM),surviving fraction ([2]; 0.5 nM),surviving fraction ([2]; 1 nM),surviving fraction ([2]; 5 nM),surviving fraction ([2]; 10 nM),surviving fraction ([2]; 50 nM),surviving fraction ([2]; 100 nM),surviving fraction ([2]; 500 nM),surviving fraction ([2]; 1000 nM)
22RV1 PROSTATE,1.06 ± 0.088,1.04 ± 0.089,1.09 ± 0.054,1.09 ± 0.016,1.1 ± 0.048,1.06 ± 0.08,1.13 ± 0.056,1.04 ± 0.079,0.946 ± 0.039,1.03 ± 0.018,0.992 ± 0.056,1 ± 0.13,1.03 ± 0.06,1.08 ± 0.15,1.07 ± 0.095,0.909 ± 0.18
93VU HEADNECK,1.25 ± 0.11,1.2 ± 0.11,1.34 ± 0.074,1.32 ± 0.075,1.27 ± 0.053,1.2 ± 0.1,1.24 ± 0.12,1.08 ± 0.068,0.824 ± 0.084,0.841 ± 0.026,0.916 ± 0.028,1.01 ± 0.14,1.02 ± 0.084,0.967 ± 0.05,0.777 ± 0.042,0.71 ± 0.051
143B BONE,–,1.09 ± 0.041,1.15 ± 0.11,1.1 ± 0.036,1.12 ± 0.035,1.1 ± 0.033,1.14 ± 0.12,1.12 ± 0.15,1.07 ± 0.08,1.03 ± 0.023,1.02 ± 0.013,1.05 ± 0.02,1.01 ± 0.038,1.09 ± 0.059,1.048 ± 0.0092,1.06 ± 0.031
A549 LUNG,1.07 ± 0.021,1.065 ± 0.0068,1.06 ± 0.022,1.08 ± 0.013,1.05 ± 0.023,1.1 ± 0.03,1.09 ± 0.022,1.11 ± 0.032,1.03 ± 0.016,0.976 ± 0.028,0.977 ± 0.022,0.98 ± 0.012,1.01 ± 0.02,1.01 ± 0.03,0.994 ± 0.021,0.97 ± 0.029
ASKA SYNOVIAL,1.11 ± 0.056,1.18 ± 0.097,1.18 ± 0.096,1.23 ± 0.031,1.18 ± 0.029,1.17 ± 0.069,1.04 ± 0.1,1.14 ± 0.064,1.09 ± 0.049,1.1 ± 0.062,1.13 ± 0.11,1.18 ± 0.029,1.08 ± 0.04,1.2 ± 0.03,1.1 ± 0.1,1.03 ± 0.029
BT20 BREAST,1.32 ± 0.11,1.27 ± 0.07,1.24 ± 0.065,1.3 ± 0.096,1.19 ± 0.086,1.28 ± 0.037,1.7 ± 0.076,1.9 ± 0.13,1.02 ± 0.047,1.09 ± 0.097,1.05 ± 0.069,1.2 ± 0.08,1.11 ± 0.012,1.19 ± 0.11,1.19 ± 0.1,1.17 ± 0.18
BT549 BREAST,0.924 ± 0.072,1.01 ± 0.1,1.01 ± 0.12,0.926 ± 0.082,0.93 ± 0.046,1.04 ± 0.013,1.07 ± 0.14,0.865 ± 0.052,1.05 ± 0.047,1.02 ± 0.024,1.07 ± 0.034,1.02 ± 0.2,1.22 ± 0.017,1.13 ± 0.16,1.12 ± 0.18,1.16 ± 0.14
C33A CERVIX,1.06 ± 0.065,1.07 ± 0.062,1.06 ± 0.15,1.1 ± 0.047,1.14 ± 0.083,1.21 ± 0.029,1.22 ± 0.12,1.34 ± 0.069,0.753 ± 0.12,0.696 ± 0.036,0.941 ± 0.021,0.885 ± 0.076,0.862 ± 0.071,0.919 ± 0.019,0.702 ± 0.0072,0.676 ± 0.068
CADOES1 SOFT TISSUE,1.04 ± 0.054,0.998 ± 0.092,0.842 ± 0.12,0.986 ± 0.066,1.07 ± 0.064,0.978 ± 0.067,1.14 ± 0.042,0.967 ± 0.087,0.946 ± 0.15,0.895 ± 0.081,0.994 ± 0.054,0.914 ± 0.15,0.858 ± 0.16,0.877 ± 0.034,0.976 ± 0.056,0.878 ± 0.17
CAL51 BREAST,0.988 ± 0.042,0.966 ± 0.054,1.05 ± 0.1,0.984 ± 0.029,1.04 ± 0.046,1.05 ± 0.028,1.08 ± 0.036,0.969 ± 0.028,1.01 ± 0.08,0.953 ± 0.025,1.04 ± 0.041,0.954 ± 0.062,1.06 ± 0.056,1.07 ± 0.022,0.944 ± 0.091,0.89 ± 0.015
CAL72 BONE,1.1 ± 0.045,1.08 ± 0.069,1.11 ± 0.037,1.12 ± 0.034,1.14 ± 0.082,1.13 ± 0.07,0.967 ± 0.17,0.832 ± 0.21,1.03 ± 0.082,1.03 ± 0.093,1.07 ± 0.11,1.06 ± 0.079,1.09 ± 0.095,1.14 ± 0.019,1.11 ± 0.12,1.08 ± 0.11
CAL120 BREAST,1 ± 0.031,0.972 ± 0.017,1.02 ± 0.074,1 ± 0.044,1.04 ± 0.041,0.994 ± 0.045,0.999 ± 0.031,0.948 ± 0.027,0.918 ± 0.082,0.924 ± 0.054,0.941 ± 0.056,0.921 ± 0.051,0.968 ± 0.052,0.923 ± 0.019,0.893 ± 0.045,0.886 ± 0.026
CASKI CERVIX,0.882 ± 0.064,0.93 ± 0.023,0.989 ± 0.046,0.977 ± 0.03,1.1 ± 0.071,1.05 ± 0.017,1.01 ± 0.043,0.9003 ± 0.0032,0.969 ± 0.021,0.914 ± 0.05,0.942 ± 0.021,0.907 ± 0.063,0.959 ± 0.031,0.907 ± 0.021,0.953 ± 0.038,0.768 ± 0.027
CHLA90 AUTONOMIC GANGLIA,0.969 ± 0.013,0.966 ± 0.061,0.985 ± 0.077,0.98 ± 0.039,–,1.16 ± 0.078,1.09 ± 0.088,1.05 ± 0.11,0.917 ± 0.024,0.936 ± 0.052,0.9 ± 0.065,0.863 ± 0.016,0.913 ± 0.023,0.907 ± 0.072,0.868 ± 0.11,0.856 ± 0.097
CME SYNOVIAL,1.26 ± 0.1,1.31 ± 0.15,1.42 ± 0.13,1.46 ± 0.13,1.41 ± 0.13,1.43 ± 0.1,1.28 ± 0.085,1.4 ± 0.053,1.23 ± 0.11,1.24 ± 0.16,1.24 ± 0.11,1.21 ± 0.042,1.2 ± 0.046,1.19 ± 0.15,1.1 ± 0.071,1.01 ± 0.12
COLO320DM LARGE INTESTINE,1.14 ± 0.071,1.05 ± 0.08,1.05 ± 0.011,1.11 ± 0.045,1.17 ± 0.079,1.18 ± 0.056,1.16 ± 0.05,1.13 ± 0.018,1.08 ± 0.12,1.07 ± 0.13,1.04 ± 0.13,1.11 ± 0.08,1.18 ± 0.069,1.23 ± 0.093,1.16 ± 0.049,1.04 ± 0.099
DU4475 BREAST,0.958 ± 0.1,0.963 ± 0.1,0.964 ± 0.053,0.903 ± 0.057,0.825 ± 0.017,0.717 ± 0.031,0.872 ± 0.17,0.651 ± 0.11,0.782 ± 0.12,0.874 ± 0.076,0.868 ± 0.053,0.93 ± 0.16,0.899 ± 0.19,0.781 ± 0.085,0.908 ± 0.096,1.03 ± 0.12
H23 LUNG,1.06 ± 0.045,1.05 ± 0.026,1.07 ± 0.05,1.03 ± 0.016,1.07 ± 0.023,1.09 ± 0.094,1.07 ± 0.08,1.06 ± 0.11,0.962 ± 0.052,0.931 ± 0.021,0.974 ± 0.022,0.924 ± 0.032,0.945 ± 0.043,0.936 ± 0.053,0.937 ± 0.066,0.925 ± 0.028
HCC78 LUNG,0.893 ± 0.16,0.908 ± 0.17,0.902 ± 0.39,1.05 ± 0.19,–,1.13 ± 0.077,1.29 ± 0.2,1.08 ± 0.094,0.826 ± 0.047,0.884 ± 0.047,0.991 ± 0.044,0.608 ± 0.16,0.315 ± 0.049,0.281 ± 0.088,0.185 ± 0.023,0.221 ± 0.058
HCC202 BREAST,1.15 ± 0.4,1.2 ± 0.061,1.53 ± 0.67,1.19 ± 0.14,1.03 ± 0.083,1.17 ± 0.17,0.881 ± 0.29,1.13 ± 0.51,1.12 ± 0.14,1.11 ± 0.079,1.2 ± 0.031,1.15 ± 0.17,1.1 ± 0.28,1.13 ± 0.065,1.31 ± 0.12,1.09 ± 0.098
HCC1395 BREAST,1.26 ± 0.13,1.15 ± 0.057,1.33 ± 0.13,1.25 ± 0.048,1.19 ± 0.13,1.12 ± 0.12,1.04 ± 0.11,1.09 ± 0.16,1.12 ± 0.073,1.02 ± 0.06,1.14 ± 0.045,1.23 ± 0.034,1.38 ± 0.14,1.33 ± 0.053,1.13 ± 0.085,1.2 ± 0.086
